Patent US20230391786A1, “cGAS INHIBITORS” (Eli Lilly and Company, priority 2022, published 2023)
Counter-ions that a name gives are not always drawn.

Molecular target: recombinant human cGAS (Homo sapiens (Human), UniProt Q8N884)
Assay: In vitro inhibition assay of cGAS activity (cGAMP production, RapidFire mass spectrometry)
Assay type: biochemical
Conditions: 10 nM recombinant human cGAS, 60 nM 75-bp dsDNA, ATP, GTP, room temperature 3 hours, read-out: IC50 (μM), In vitro inhibition assay for Compounds 1-94
Description: Expression and Purification of Recombinant cGAS Protein: Insert cDNA encoding full-length of human cGAS into a modified bacterial expression vector containing an in-frame His6-tag. Induce the E. coli strain BL21(DE3) harboring the plasmid with 1 mM IPTG (Isopropyl β-D-1-thiogalactopyranoside) at 18° C. overnight. Purify the His6-tagged cGAS protein over HISpur Ni-NTA resin in the presence of benzonase and RNase followed by Superdex 200 size exclusion chromatography with storage buffer (50 mM Tris-HCl pH 7.5, 300 mM NaCl, 1 mM DTT, 10% glycerol).
In vitro inhibition assay of cGAS activity: Add a 5 μL mixture containing 10 mM Tris-Cl pH 7.5, 50 mM NaCl, 5 mM MgCl2, 1 mM DTT, 0.01% Triton X-100, 60 nM 75-bp dsDNA, […], 50 μM GTP, 10 nM of recombinant human cGAS, and serial dilutions of a test compound in DMSO to a 384-well plate and incubate at room temperature for 3 hours. Quench the reaction by the addition of 100 μL of stop solution containing 0.1% formic acid and 0.1 μM internal standard (3′3′-difluoro cGAMP). Measure the amount of cGAMP produced by RapidFire 365 mass spectrometry and evaluate inhibitory effect of a compound by plotting percent specific inhibition of cGAMP production against log concentration of the test compound. Calculate IC50 values using a 4-parameter non-linear logistic equation (y=(S0+((SInf−S0)/(1+((qAC50/x)^nHill))))).

Sequence of recombinant human cGAS (Q8N884 whole entry): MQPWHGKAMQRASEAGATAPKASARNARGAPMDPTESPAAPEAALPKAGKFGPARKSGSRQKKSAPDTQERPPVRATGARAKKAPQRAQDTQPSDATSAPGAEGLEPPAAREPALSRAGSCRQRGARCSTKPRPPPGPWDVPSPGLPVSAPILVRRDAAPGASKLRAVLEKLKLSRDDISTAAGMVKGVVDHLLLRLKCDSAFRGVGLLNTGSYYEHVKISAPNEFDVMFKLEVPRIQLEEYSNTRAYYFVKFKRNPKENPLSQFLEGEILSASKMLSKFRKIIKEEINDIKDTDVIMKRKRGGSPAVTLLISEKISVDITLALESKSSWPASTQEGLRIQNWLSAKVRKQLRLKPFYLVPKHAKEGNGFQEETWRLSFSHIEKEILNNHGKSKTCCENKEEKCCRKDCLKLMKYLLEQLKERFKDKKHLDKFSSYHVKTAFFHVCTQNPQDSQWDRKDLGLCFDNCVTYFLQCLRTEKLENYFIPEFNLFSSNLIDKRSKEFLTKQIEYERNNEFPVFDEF

Structure (SMILES)	IC50
O=C1Cn2c(c(-c3cn[nH]c3)c3ccc(Cl)c(Cl)c32)CN1CCO [Example 76, 6,7-Dichloro-2-(2-hydroxyethyl)-10-(1H-pyrazol-4-yl)-1,2-dihydropyrazino[1,2-a]indol-3(4H)-one]	0.0452 µM
NC(=O)COc1cc(Cl)c(Cl)c2[nH]cc(-c3cn[nH]c3)c12 [Example 59, 2-[[6,7-Dichloro-3-(1H-pyrazol-4-yl)-1H-indol-4-yl]oxy]acetamide]	0.0242 µM
OCCOc1cc(Cl)c(Cl)c2[nH]cc(-c3cn[nH]c3)c12 [Example 57, 2-((6,7-Dichloro-3-(1H-pyrazol-4-yl)-1H-indol-4-yl)oxy)ethanol]	0.0352 µM
Cc1c(-c2cn[nH]c2)c2ccc(Cl)c(Cl)c2n1C [Example 3, 6,7-Dichloro-1,2-dimethyl-3-(1H-pyrazol-4-yl)indole]	0.0614 µM
O=C1Cn2c(c(-c3cn[nH]c3)c3ccc(Cl)c(Cl)c32)CN1 [Example 8, 6,7-Dichloro-10-(1H-pyrazol-4-yl)-2,4-dihydro-1H-pyrazino[1,2-a]indol-3-one]	0.0531 µM
CC(=O)N(C)CC(=O)N1CCn2c(c(-c3cn[nH]c3)c3ccc(Cl)c(Cl)c32)C1 [Example 52, N-[2-[6,7-dichloro-10-(1H-pyrazol-4-yl)-3,4-dihydro-1H-pyrazino[1,2-a]indol-2-yl]-2-oxo-ethyl]-N-methyl-acetamide]	0.0975 µM
CC(=O)NC1CCn2c1c(-c1cn[nH]c1)c1ccc(Cl)c(Cl)c12 (single isomer, unassigned) [Example 27, N-(5,6-Dichloro-9-(1H-pyrazol-4-yl)-2,3-dihydro-1H-pyrrolo[1,2-a]indol-1-yl)acetamide]	0.158 µM
O=C1Cn2c(c(-c3cn[nH]c3)c3ccc(Cl)c(Cl)c32)CCN1 [Example 7, 7,8-Dichloro-11-(1H-pyrazol-4-yl)-1,2,3,5-tetrahydro-[1,4]diazepino[1,7-a]indol-4-one]	0.0436 µM
Cc1nnc(NCc2[nH]c3c(Cl)c(Cl)ccc3c2-c2cn[nH]c2)s1 [Example 11, N-[[6,7-Dichloro-3-(1H-pyrazol-4-yl)-1H-indol-2-yl]methyl]-5-methyl-1,3,4-thiadiazol-2-amine]	0.0423 µM
OCC1CCn2c(c(-c3cn[nH]c3)c3ccc(Cl)c(Cl)c32)C1 (single isomer, unassigned) [Example 16, [3,4-Dichloro-10-(1H-pyrazol-4-yl)-6,7,8,9-tetrahydropyrido[1,2-a]indol-8-yl]methanol]	0.0674 µM
O=C1CCCN1C1CCc2c(-c3cn[nH]c3)c3ccc(Cl)c(Cl)c3n2C1 (stereo not shown) [Example 74, 1-[3,4-Dichloro-10-(1H-pyrazol-4-yl)-6,7,8,9-tetrahydropyrido[1,2-a]indol-7-yl]pyrrolidin-2-one]	0.0847 µM
Cn1cnnc1NCc1[nH]c2c(Cl)c(Cl)ccc2c1-c1cn[nH]c1 [Example 12, N-[[6,7-Dichloro-3-(1H-pyrazol-4-yl)-1H-indol-2-yl]methyl]-4-methyl-1,2,4-triazol-3-amine]	0.0649 µM
COCC(=O)N1CCn2c(c(-c3cn[nH]c3)c3ccc(Cl)c(Cl)c32)C1 [Example 42, 1-[6,7-dichloro-10-(1H-pyrazol-4-yl)-3,4-dihydro-1H-pyrazino[1,2-a]indol-2-yl]-2-methoxy-ethanone]	0.0273 µM
O[C@H]1C[C@@H](Nc2cc(Cl)c(Cl)c3[nH]cc(-c4cn[nH]c4)c23)C1 [Example 67, (cis)-3-((6,7-Dichloro-3-(1H-pyrazol-4-yl)-1H-indol-4-yl)amino)cyclobutanol]	0.0371 µM
O=C(O)C1CCCn2c(c(-c3cn[nH]c3)c3ccc(Cl)c(Cl)c32)C1 (single isomer, unassigned) [Example 25, 3,4-Dichloro-11-(1H-pyrazol-4-yl)-7,8,9,10-tetrahydro-6H-azepino[1,2-a]indole-9-carboxylic acid]	0.0412 µM
O=C1CCn2c(c(-c3cn[nH]c3)c3ccc(Cl)c(Cl)c32)N1 [Example 55, 6,7-Dichloro-10-(1H-pyrazol-4-yl)-3,4-dihydro-1H-pyrimido[1,2-a]indol-2-one]	0.0946 µM
O=C(O)C1CCCn2c(c(-c3cn[nH]c3)c3ccc(Cl)c(Cl)c32)C1 (single isomer, unassigned) [Example 24, 3,4-Dichloro-11-(1H-pyrazol-4-yl)-7,8,9,10-tetrahydro-6H-azepino[1,2-a]indole-9-carboxylic acid]	0.0834 µM
Clc1ccc2c(-c3cn[nH]c3)c3n(c2c1Cl)CCNC3 [Example 37, 6,7-Dichloro-10-(1H-pyrazol-4-yl)-1,2,3,4-tetrahydropyrazino[1,2-a]indole hydrochloride]	0.09 µM
CC(=O)N1CCn2c(c(-c3cn[nH]c3)c3ccc(Cl)c(Cl)c32)C1 [Example 38, 1-[6,7-Dichloro-10-(1H-pyrazol-4-yl)-3,4-dihydro-1H-pyrazino[1,2-a]indol-2-yl]ethanone]	0.0404 µM

Other lines, results leading:

IC50	Structure (SMILES)
0.0815 µM	CS(=O)(=O)NCCn1cc(-c2cn[nH]c2)c2c(OCC#N)cc(Cl)c(Cl)c21 [Example 84, N-[2-[6,7-Dichloro-4-(cyanomethoxy)-3-(1H-pyrazol-4-yl)indol-1-yl]ethyl]methanesulfonamide]
0.0818 µM	O=C1NC(CO)Cn2c1c(-c1cn[nH]c1)c1ccc(Cl)c(Cl)c12 (stereo not shown) [Example 80, 6,7-Dichloro-3-(hydroxymethyl)-10-(1H-pyrazol-4-yl)-3,4-dihydro-2H-pyrazino[1,2-a] indol-1-one]

Same assay, conditions: 10 nM recombinant human cGAS, 60 nM 75-bp dsDNA, ATP, GTP, room temperature 3 hours, read-out: IC50 (μM), In vitro inhibition assay for Compounds 95-348

Structure (SMILES)	IC50
O=C(CCc1ncc(F)cn1)N1CCn2c(c(-c3cn[nH]c3)c3ccc(Cl)c(Cl)c32)C1 [Example 325, 1-(6,7-Dichloro-10-(1H-pyrazol-4-yl)-3,4-dihydropyrazino[1,2-a]indol-2(1H)-yl)-3-(5-fluoropyrimidin-2-yl)propan-1-one]	0.0626 µM
CN1C(=O)CCC1C(=O)N1CCn2c(c(-c3cn[nH]c3)c3ccc(Cl)c(Cl)c32)C1 (stereo not shown) [Example 326, 5-(6,7-Dichloro-10-(1H-pyrazol-4-yl)-1,2,3,4-tetrahydropyrazino[1,2-a]indole-2-carbonyl)-1-methylpyrrolidin-2-one]	0.0627 µM
CC(=O)N1CC(C(=O)N2CCn3c(c(-c4cn[nH]c4)c4ccc(Cl)c(Cl)c43)C2)C1 [Example 321, 1-(3-(6,7-Dichloro-10-(1H-pyrazol-4-yl)-1,2,3,4-tetrahydropyrazino[1,2-a]indole-2-carbonyl)azetidin-1-yl)ethan-1-one]	0.0562 µM
COCCN1CC(C(=O)N2CCn3c(c(-c4cn[nH]c4)c4ccc(Cl)c(Cl)c43)C2)CC1=O (stereo not shown) [Example 312, 4-(6,7-dichloro-10-(1H-pyrazol-4-yl)-1,2,3,4-tetrahydropyrazino[1,2-a]indole-2-carbonyl)-1-(2-methoxyethyl)pyrrolidin-2-one]	0.0468 µM
CCS(=O)(=O)NCc1[nH]c2c(Cl)c(Cl)ccc2c1-c1cn[nH]c1 [Example 105, N-((6,7-Dichloro-3-(1H-pyrazol-4-yl)-1H-indol-2-yl)methyl)ethanesulfonamide]	0.0712 µM
CCN1C(=O)CCC1C(=O)N1CCn2c(c(-c3cn[nH]c3)c3ccc(Cl)c(Cl)c32)C1 (stereo not shown) [Example 320, 5-(6,7-Dichloro-10-(1H-pyrazol-4-yl)-1,2,3,4-tetrahydropyrazino[1,2-a]indole-2-carbonyl)-1-ethylpyrrolidin-2-one]	0.055 µM
CC(=O)NCC(=O)NCc1[nH]c2c(Cl)c(Cl)ccc2c1-c1cn[nH]c1 [Example 106, 2-Acetamido-N-((6,7-dichloro-3-(1H-pyrazol-4-yl)-1H-indol-2-yl)methyl)acetamide]	0.0561 µM
